Data: US11028141B2, “Therapeutic for the prevention and/or treatment of weight gain and/or diabetes” (priority 2016, dated 2021)

Key:
NCI H716 cells = format: cell-based, human
Procedure: Identifying the microbial-derived compound responsible for GLP-1 stimulatory activity—To narrow down the bacterial component responsible for GLP-1 secretion in vitro, and for metabolic disease marker modulation in vivo, size fractionation studies were performed using Amicon centrifuge filtration tubes and exposure of the fractions on NCI H716 cells.
To further identify the component responsible for the activity, bacterial supernatants were analyzed using a Thermo Orbitrap Fusion mass spectrometer equipped with an Easy Nanospray HPLC system.

GLUTag cells = assay: GLP-1 secretion by GLUTag cells, measured by ELISA; format: cell-based, murine; settings: cell-free supernatants or PMA positive control on GLUTag cells
Procedure: S. epidermidis has GLP-1 stimulatory activity in vitro in NCI H716 and GLUTag cells—In order to identify bacterial strains capable of eliciting GLP-1 secretion, 1500 microbial supernatants were screened using human NCI H716 cells. […] Following 16S rRNA sequencing, all 45 stimulatory strains came back as strains of S. epidermidis. Incubation of cell-free supernatants from two of the stimulatory strains with the highest activity, S. epidermidis JA1 and JA8 on NCI H716 cells stimulated a release of 3155±276 pM and 2518±141 pM GLP-1, respectively (FIG. 6A). GM17 media control and the PMA positive control had GLP-1 levels of 565±188 pM and 1767±120 pM GLP-1, respectively, indicating an approximate 2-fold increase in activity by JA1 over the positive PMA control. It was confirmed that JA1 and JA8 could stimulate GLP-1 secretion in a second model, murine GLUTag cells. S. epidermidis JA1 and JA8 led to the release of 1123±107 pM and 984±40 pM GLP-1, respectively (FIG. 6B). The GM17 media control and the PMA positive control had GLP-1 levels of 327±35 pM and 305±14 pM, respectively, indicating no real stimulation by PMA. […] None of the S. epidermidis bacterial cell-free supernatants had detectable toxicity on NCI H716 (FIG. 6C) and GLUTag (FIG. 6D) cells, as determined by a PrestoBlue resazurin-based analysis which measures aerobic respiration as an indicator of cell viability.

Compound	GLP-1 stimulatory activity (GLP-1) (NCI H716 cells; 20 μM peptide, NCI H716 cells) [pM]	GLP-1 stimulatory activity of synthesized peptides (NCI H716 cells; varying concentrations, NCI H716 cells)	release of GLP-1 (GLUTag cells) [pM]	release of GLP-1 (NCI H716 cells; cell-free supernatants or PMA positive control on NCI H716 cells) [pM]
MAADIISTIGDLVKWIIDTVNKFTKK [24_25insT]	1283.5 ± 798	activity		
CCCCCCCCCCCCCC(=O)O[C@@H]1[C@@H](C)[C@@]2(O)[C@@H](C=C(CO)C[C@]3(O)C(=O)C(C)=C[C@@H]23)[C@@H]2C(C)(C)[C@]12OC(C)=O [PMA, reference compound]			305 ± 14	1767 ± 120
